Source: PubChem BioAssay AID248 (DTP/NCI, 2004)
“And” between values parts separate entries of the source, which are not always exact repeats. Identical values can stand only once. Inconclusive results and toxic doses are left out. Rule as the data show it: active = T/C of 150% or more; inactive = T/C below 125%.

Tested on: L1210 leukemia ip in BDF1 mice, survival T/C
Assay: NCI In Vivo Anticancer Drug Screen. Data for tumor model L1210 Leukemia (intraperitoneal) in B6D2F1 (BDF1) mice
Details: endpoint: mean survival time, higher = longer survival
How it was run: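 Value reflects the ratio of survival in compound-treated mice to survival in vehicle-treated controls, with both groups carrying the same transplanted tumor.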

[1] = dose: 100.0 mg/kg/injection, schedule: Q01DX001 (ip), vehicle: Klucel (hydroxypropylcellulose) (HPC)
[2] = dose: 200.0 mg/kg/injection, schedule: Q01DX001 (ip), vehicle: Klucel (hydroxypropylcellulose) (HPC)
[3] = dose: 100.0 mg/kg/injection, schedule: Q04DX003 (ip), vehicle: saline with Tween-80
[4] = dose: 200.0 mg/kg/injection, schedule: Q04DX003 (ip), vehicle: saline with Tween-80
[5] = dose: 400.0 mg/kg/injection, schedule: Q04DX003 (ip), vehicle: saline with Tween-80
[6] = dose: 400.0 mg/kg/injection, schedule: Q01DX001 (ip), vehicle: Klucel (hydroxypropylcellulose) (HPC)
[7] = dose: 100.0 mg/kg/injection, schedule: Q01DX001 (ip), vehicle: carboxymethylcellulose (CMC)
[8] = dose: 200.0 mg/kg/injection, schedule: Q01DX001 (ip), vehicle: carboxymethylcellulose (CMC)
[9] = dose: 400.0 mg/kg/injection, schedule: Q01DX001 (ip), vehicle: carboxymethylcellulose (CMC)
[10] = dose: 100.0 mg/kg/injection, schedule: Q01DX009 (ip), vehicle: saline with Tween-80
[11] = dose: 200.0 mg/kg/injection, schedule: Q01DX009 (ip), vehicle: saline with Tween-80

Measured: T/C

COc1cc(C(=O)O)c(Cc2ccccc2)c(OC)c1O
inactive: dose: 5.0 mg/kg/injection, schedule: Q01DX001 (ip), vehicle: saline 95 % of control | dose: 10.0 mg/kg/injection, schedule: Q01DX001 (ip), vehicle: saline 97 % of control | dose: 20.0 mg/kg/injection, schedule: Q01DX001 (ip), vehicle: saline 95 % of control | dose: 40.0 mg/kg/injection, schedule: Q01DX001 (ip), vehicle: saline 95 % of control | dose: 80.0 mg/kg/injection, schedule: Q01DX001 (ip), vehicle: saline 95 % of control

Nc1ncnc2c1ncn2C1OC(COP(=O)(O)OCC(N)Cc2ccccc2)C(O)C1O (centres undefined)
inactive: dose: 100.0 mg/kg/injection, schedule: Q01DX005 (ip), vehicle: saline 87 % of control | dose: 200.0 mg/kg/injection, schedule: Q01DX005 (ip), vehicle: saline 107 % of control

O=C(NCCCN1CC1)C(=O)Nc1ccccc1
inactive: dose: 12.5 mg/kg/injection, schedule: Q04DX003 (ip), vehicle: Klucel (hydroxypropylcellulose) (HPC) 92 % of control | dose: 25.0 mg/kg/injection, schedule: Q04DX003 (ip), vehicle: Klucel (hydroxypropylcellulose) (HPC) 101 % of control

COc1cccc(C(Cc2ccc(N3C(N)=NC(N)=NC3(C)C)cc2)C(=O)Nc2ccc(S(=O)(=O)F)cc2)c1 (centres undefined)
inactive: dose: 50.0 mg/kg/injection, schedule: Q01DX001 (ip), vehicle: Klucel (hydroxypropylcellulose) (HPC) 99 % of control | [1] 99 % of control | [2] 96 % of control

O=C(COc1ccc(Cl)c(Cl)c1)Nc1ccc[n+](Cc2ccc(Cl)cc2S(=O)(=O)F)c1
inactive: [3] 97 % of control | [4] 94 % of control | [5] 101 % of control

CC(C)(C)NC(=O)C1C2CCC1C2Cl (centres undefined)
inactive: dose: 75.0 mg/kg/injection, schedule: Q01DX001 (ip), vehicle: saline 96 % of control | dose: 150.0 mg/kg/injection, schedule: Q01DX001 (ip), vehicle: saline 92 % of control | dose: 300.0 mg/kg/injection, schedule: Q01DX001 (ip), vehicle: saline 90 % of control

COc1ccccc1C(Cc1ccc(N2C(N)=NC(N)=NC2(C)C)cc1)C(=O)Nc1ccc(S(=O)(=O)F)cc1 (centres undefined)
inactive: [1] 101 % of control | [2] 101 % of control | [6] 99 % of control

CN1c2ccccc2C(C)(C)C12C=Cc1cc([N+](=O)[O-])cc([N+](=O)[O-])c1O2 (centres undefined)
inactive: [1] 105 % of control | [2] 105 % of control | [6] 97 % of control

O=C1c2ccccc2-c2cc(Br)c([N+](=O)[O-])cc21
inactive: dose: 50.0 mg/kg/injection, schedule: Q01DX001 (ip), vehicle: carboxymethylcellulose (CMC) 93 % of control | [7] 96 % of control | [8] 86 % of control | [9] 88 % of control

CCCCCCC(=O)N(C(C)C)C(C)C
inactive: [7] 100 % of control | dose: 100.0 mg/kg/injection, schedule: Q01DX009 (ip), vehicle: carboxymethylcellulose (CMC) 103 % of control and 104 % of control | dose: 100.0 mg/kg/injection, schedule: Q04DX002 (ip), vehicle: carboxymethylcellulose (CMC) 98 % of control and 103 % of control | dose: 100.0 mg/kg/injection, schedule: Q04DX003 (ip), vehicle: carboxymethylcellulose (CMC) 104 % of control | [8] 98 % of control | dose: 200.0 mg/kg/injection, schedule: Q01DX009 (ip), vehicle: carboxymethylcellulose (CMC) 97 % of control and 100 % of control | dose: 200.0 mg/kg/injection, schedule: Q04DX002 (ip), vehicle: carboxymethylcellulose (CMC) 93 % of control and 98 % of control | dose: 200.0 mg/kg/injection, schedule: Q04DX003 (ip), vehicle: carboxymethylcellulose (CMC) 102 % of control | [9] 88 % of control | dose: 400.0 mg/kg/injection, schedule: Q01DX009 (ip), vehicle: carboxymethylcellulose (CMC) 93 % of control | dose: 400.0 mg/kg/injection, schedule: Q04DX002 (ip), vehicle: carboxymethylcellulose (CMC) 92 % of control

C[N+](C)(CC(=O)Nc1ccc(Cl)cc1)Cc1ccc2c(c1)CCCC2
inactive: dose: 6.25 mg/kg/injection, schedule: Q04DX002 (ip), vehicle: saline with Tween-80 90 % of control | dose: 12.5 mg/kg/injection, schedule: Q04DX002 (ip), vehicle: saline with Tween-80 90 % of control | dose: 25.0 mg/kg/injection, schedule: Q04DX002 (ip), vehicle: saline with Tween-80 90 % of control and 91 % of control

CCSC(=O)N1c2ccc(C)cc2C=CC1C#N (centres undefined)
inactive: [10] 93 % of control | [3] 90 % of control | [11] 104 % of control | [4] 89 % of control | [5] 95 % of control

Cc1cc(C(N)=O)c(C(N)=O)c(=O)[nH]1
inactive: dose: 75.0 mg/kg/injection, schedule: Q01DX001 (ip), vehicle: water 97 % of control | dose: 150.0 mg/kg/injection, schedule: Q01DX001 (ip), vehicle: water 92 % of control

CC(=O)Nc1cccc(C(F)(F)F)c1
inactive: dose: 25.0 mg/kg/injection, schedule: Q01DX009 (ip), vehicle: Klucel (hydroxypropylcellulose) (HPC) 101 % of control | dose: 50.0 mg/kg/injection, schedule: Q01DX009 (ip), vehicle: Klucel (hydroxypropylcellulose) (HPC) 96 % of control | dose: 100.0 mg/kg/injection, schedule: Q01DX009 (ip), vehicle: Klucel (hydroxypropylcellulose) (HPC) 101 % of control

O=C1CCCC2CCCC12 (centres undefined)
inactive: [7] 93 % of control | [8] 95 % of control | [9] 93 % of control

COc1ccc(Cl)cc1Cl
inactive: dose: 75.0 mg/kg/injection, schedule: Q01DX009 (ip), vehicle: saline 90 % of control | dose: 75.0 mg/kg/injection, schedule: Q04DX003 (ip), vehicle: saline 100 % of control | dose: 150.0 mg/kg/injection, schedule: Q01DX009 (ip), vehicle: saline 86 % of control | dose: 150.0 mg/kg/injection, schedule: Q04DX003 (ip), vehicle: saline 95 % of control | dose: 300.0 mg/kg/injection, schedule: Q01DX009 (ip), vehicle: saline 92 % of control | dose: 300.0 mg/kg/injection, schedule: Q04DX003 (ip), vehicle: saline 90 % of control

CNC(CNC(CO)CC(C)C)Cc1ccc(OCc2ccccc2)cc1 (centres undefined)
inactive: dose: 12.5 mg/kg/injection, schedule: Q01DX009 (ip), vehicle: saline 102 % of control | dose: 25.0 mg/kg/injection, schedule: Q01DX009 (ip), vehicle: saline 91 % of control | dose: 25.0 mg/kg/injection, schedule: Q04DX003 (ip), vehicle: saline 95 % of control | dose: 50.0 mg/kg/injection, schedule: Q01DX009 (ip), vehicle: saline 94 % of control | dose: 50.0 mg/kg/injection, schedule: Q04DX003 (ip), vehicle: saline 95 % of control | dose: 100.0 mg/kg/injection, schedule: Q04DX003 (ip), vehicle: saline 95 % of control

CCC(Cl)C(=O)Nc1ccccc1 (centres undefined)
inactive: dose: 50.0 mg/kg/injection, schedule: Q01DX001 (ip), vehicle: saline 96 % of control | dose: 100.0 mg/kg/injection, schedule: Q01DX001 (ip), vehicle: saline 108 % of control | dose: 200.0 mg/kg/injection, schedule: Q01DX001 (ip), vehicle: saline 102 % of control | dose: 400.0 mg/kg/injection, schedule: Q01DX001 (ip), vehicle: saline 104 % of control

O=C(COc1ccc(Cl)cc1)NNc1ccccc1
inactive: dose: 100.0 mg/kg/injection, schedule: Q04DX002 (ip), vehicle: saline 100 % of control | dose: 200.0 mg/kg/injection, schedule: Q04DX002 (ip), vehicle: saline 96 % of control | dose: 400.0 mg/kg/injection, schedule: Q04DX002 (ip), vehicle: saline 114 % of control

Cc1ccc(S(=O)(=O)Nc2ccccc2-c2nc3ccc([N+](=O)[O-])cc3c(=O)o2)cc1
inactive: [10] 104 % of control | [11] 96 % of control

CSc1ncc(Br)c(C(=O)O)n1
inactive: [10] 93 % of control | [11] 93 % of control | dose: 400.0 mg/kg/injection, schedule: Q01DX009 (ip), vehicle: saline with Tween-80 94 % of control
